Data published in ChEMBL document CHEMBL1151560, “Nonpeptide glycoprotein IIb/IIIa inhibitors: 18. Indole alpha-sulfonamide acids are potent inhibitors of platelet aggregation” (Bioorg Med Chem Lett, 1997).
pIC50: −log10 of the molar value.

Experiments:
Albumin [1] = molecular target: T1, Albumin (Homo sapiens, UniProt P02768); assay: Protein Binding Assay measures the ability of a compound to bind to human albumin in pH 7.4 buffer.; not soluble
Homo sapiens = organism: Homo sapiens; assay: Inhibition of ADP-induced platelet aggregation in human gel-filtered platelets; assay type: functional
Albumin [2] = molecular target: T1, Albumin; assay: Protein Binding Assay measures the ability of a compound to bind to human albumin in pH 7.4 buffer.
[3] = molecular target: Integrin alpha-IIb/beta-3 (Homo sapiens) (UniProt P05106+P08514); assay: Evaluated for competitive binding against fibrinogen receptor antagonist [125I]-L-692,884 to purified alpha IIb beta-3 integrin activated by coating onto yttrium silicate Scintillation Proximity Assay Fluomicrospheres (SPA-A assay).; assay type: protein-complex assay

T1 sequence (P02768 whole entry): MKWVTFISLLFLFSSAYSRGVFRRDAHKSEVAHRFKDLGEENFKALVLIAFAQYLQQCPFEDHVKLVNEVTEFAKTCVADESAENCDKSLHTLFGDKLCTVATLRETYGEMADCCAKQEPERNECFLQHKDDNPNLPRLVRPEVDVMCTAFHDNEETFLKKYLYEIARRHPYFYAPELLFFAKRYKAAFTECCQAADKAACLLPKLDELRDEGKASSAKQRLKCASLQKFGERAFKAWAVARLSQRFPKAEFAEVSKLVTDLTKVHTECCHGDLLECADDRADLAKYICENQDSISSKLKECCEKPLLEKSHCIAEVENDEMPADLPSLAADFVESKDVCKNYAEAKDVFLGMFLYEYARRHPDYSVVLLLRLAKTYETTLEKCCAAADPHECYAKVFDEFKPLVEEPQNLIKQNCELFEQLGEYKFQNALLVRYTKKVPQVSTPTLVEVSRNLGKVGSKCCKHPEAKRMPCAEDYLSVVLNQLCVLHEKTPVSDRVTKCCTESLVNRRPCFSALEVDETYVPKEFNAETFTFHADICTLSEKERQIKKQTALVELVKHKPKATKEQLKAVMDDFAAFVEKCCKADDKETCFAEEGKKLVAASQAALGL

SMILES	Binding (Albumin [1])	pIC50 (Homo sapiens)	Binding (Albumin [2]) [%]	ED50 [3] [nM]
O=C(NC[C@H](NS(=O)(=O)c1ccccc1)C(=O)O)c1cc2cc(OCCCc3c[nH]cn3)ccc2[nH]1	–	7.00	98	2
O=C(NC[C@H](NS(=O)(=O)c1ccccc1)C(=O)O)c1cc2cc(OCCn3ccnc3)ccc2[nH]1	–	7.35	98	0.28
O=C(O)CCNC(=O)c1cc2cc(OCC3CCNCC3)ccc2[nH]1	–	6.00	52	170
O=C(NC[C@H](NS(=O)(=O)c1ccccc1)C(=O)O)c1cc2cc(OCCN3CCNCC3)ccc2[nH]1	–	7.92	57	0.13
O=C(NC[C@H](NS(=O)(=O)c1cccnc1)C(=O)O)c1cc2cc(OCC3CCNCC3)ccc2[nH]1	–	7.92	–	0.07
Cn1c(C(=O)NC[C@H](NS(=O)(=O)c2ccccc2)C(=O)O)cc2cc(OCCC3CCNCC3)ccc21	–	7.68	94	–
O=C(Cc1c[nH]c2ccc(OCC3CCNCC3)cc12)NC[C@H](NS(=O)(=O)c1ccccc1)C(=O)O	Insoluble	5.24	–	–

Further compounds by rising pIC50 (Homo sapiens), results first:

Binding (Albumin [1])	pIC50 (Homo sapiens)	Binding (Albumin [2]) [%]	ED50 [3] [nM]	SMILES
–	6.09	47	–	O=C(O)CC(NC(=O)c1cc2cc(OCC3CCNCC3)ccc2[nH]1)c1cccnc1 (stereo not given)
–	6.55	99	0.25	O=C(NC[C@H](NS(=O)(=O)c1ccccc1)C(=O)O)c1cc2cc(OCc3ccncc3)ccc2[nH]1
Insoluble	6.82	–	–	O=C(NC[C@H](NS(=O)(=O)c1ccccc1)C(=O)O)c1cc2cc(OCC3CCNCC3)ccc2n1Cc1ccccc1
–	7.35	99	0.07	Nc1cc(COc2ccc3[nH]c(C(=O)NC[C@H](NS(=O)(=O)c4ccccc4)C(=O)O)cc3c2)ccn1
–	7.77	63	0.04	CC1(C)C2CCC1(CS(=O)(=O)N[C@@H](CNC(=O)c1cc3cc(OCC4CCNCC4)ccc3[nH]1)C(=O)O)C(=O)C2 (stereo not given in full)
–	7.82	57	0.49	O=C(NC[C@H](NS(=O)(=O)c1ccccc1)C(=O)O)c1cc2ccc(OCC3CCNCC3)cc2[nH]1
–	7.82	94	–	Cn1c(C(=O)NC[C@H](NS(=O)(=O)c2ccccc2)C(=O)O)cc2cc(OCC3CCNCC3)ccc21
–	7.89	66	0.099	O=C(NC[C@H](NS(=O)(=O)c1ccccc1)C(=O)O)c1cc2cc(OCC3CCNCC3)ccc2[nH]1
–	8.10	76	0.056	O=C(NC[C@H](NS(=O)(=O)c1ccccc1)C(=O)O)c1cc2cc(OCCC3CCNCC3)ccc2[nH]1
–	8.22	85	0.06	Cc1ccc(S(=O)(=O)N[C@@H](CNC(=O)c2cc3cc(OCC4CCNCC4)ccc3[nH]2)C(=O)O)cc1
